Peptide text beside a SMILES is read from it. * marks the point of attachment. Palmitoyl = CCCCCCCCCCCCCCCC(=O)*
Tests used:
[1] = TEM nanofiber length of ApoA1-Ac2-26 PA co-assemblies; assay type: physicochemical; settings: aged at least 24 hours at 4° C.
Description: TEM: Conventional TEM images were taken on a FEI Tecnai T-12 TEM at 80 kV with a Gatan Orius® 2 k×2 k CCD camera. PAs at 1 mM in phosphate buffered saline (PBS) were prepared for TEM by pipetting 8 μL atop copper supports that were covered with thin carbon foil 400-mesh and treated with glow discharge. After two minutes, samples were rinsed with deionized water and stained with 2% uranyl acetate for two minutes before imaging. PA nanofiber length was quantified manually using Fiji open source image processing software.

[2] = Nile Red assay, critical aggregation concentration; assay type: physicochemical; settings: PBS, aged 24 hours at 4° C.
Description: Nile Red assay: The critical aggregation concentration (CAC) for PA nanofibers was determined by diluting the PAs in Nile Red solution. Nile Red undergoes a blue shift in fluorescence as the hydrophobic character of PAs in the solvent increases, with a corresponding increase in fluorescence intensity due to reduced twisted intramolecular charge transfer. 10% MMP- and ROS-Ac2-26 PAs were diluted from 1 mM to 100 nM in PBS containing of 2.5 μM Nile Red and aged for 24 hours at 4° C. The PAs were aliquoted in triplicate onto a 96-well plate, excited at 550 nm, and the fluorescence read from […]. The CAC was determined by plotting the log of the concentration with the corresponding maximum fluorescence intensity, and calculating the concentration at the intersection of the baseline and tangent line to the rising curve.

LDLR KO mice = test: Atherosclerosis treatment study; assay type: in vivo, mouse; settings: both sexes, twice per week over eight weeks, percent of atherosclerosis in the aortic root
Description: Mouse model of atherosclerosis: To study atherosclerosis, the LDLR KO mouse was used. LDLR KO mice are fed a high fat “western” diet (Teklad TD.88137) starting at 4 weeks of age. This diet consists of 20% fat, 0.2% cholesterol, and 34% high sucrose. LDLR KO mice fed this diet typically develop severe hypercholesterolemia (>800 mg/dL) and hypertriglyceridemia (>300 mg/dL) after only 2 weeks. By 12 weeks on the high fat diet, atherosclerotic lesions are detected in the aortic root and aortic arch on cryosections stained with Oil Red O (Sigma). Atherosclerosis was quantified in the aortic root as a percentage of the aortic root by taking the atherosclerotic area divided by the total aortic root area. Measurements were made with ImageJ software. All protocols for the animal model and procedures in this manuscript were approved by Northwestern University's Institutional Animal Care and Use Committee.
Blood samples were collected at the end of the treatment study for toxicology analysis. Mice were euthanized three days after their 16th treatment.
Tissue processing and imaging: Mice were sacrificed and euthanized under inhaled isoflurane anesthesia by diaphragm disruption and exsanguination. Phlebotomy was performed through direct right ventricular cardiac puncture using a 1 mL syringe and 25 G needle. Perfusion was performed through left ventricular cardiac puncture with 10 mL PBS and 10 mL 10% sucrose solution. The lungs, liver, spleen, kidney, aortic root, aortic arch, and descending aorta were harvested and stored in 10% sucrose for 20 minutes. Organs and vessels were then flash-frozen in Optimal Cutting Temperature embedding medium 4583 (Tissue-Tek®) with liquid nitrogen. Frozen specimens were stored at −80° C. and cryosectioned at […]. Confocal microscopy was performed on a Nikon AIR microscope. Two sets of images were acquired with a 10× Plan Fluor NA 0.3 objective. PAs were identified through quantification of the Alexa Fluor® 546 conjugated dye with 561 nm excitation and a 600/50 nm emission filter.
Images were acquired with spectral detection and spectrally unmixed to accurately separate green autofluorescence from the red Alexa Fluor® 546 signal. Brightfield and fluorescent microscopy were performed using a Zeiss Axio Imager.A2 microscope with AxioVision software (release 4.8.2, 06-2010). All confocal and fluorescent sections were mounted with ProGold Diamond mounting media (Sigma). Slides were stained with Oil Red O to image and quantify atherosclerosis under brightfield microscopy. The elastic laminae were identified using the green fluorescent protein (GFP) filter with an exposure time of 3500 ms under 5× magnification. Nanofibers were identified in the aortic root by presence of Alexa Fluor® 546 on the Cy3 filter under 5-10× magnification, and in the internal organs under 20× magnification. Fluorescent pixel quantification in the aortic root and within organs was performed with ImageJ software.
Statistics: The effect of treatments and sex on atherosclerosis progression in mice was analyzed using one- or two-factor analysis of variance (ANOVA) followed by a post-hoc student's t-test. The toxicological effects of treatments were also analyzed using two-factor ANOVA and a post-hoc student's t-test. Toxicological effects of treatments on liver proteins AST, ALT, and ALP were further analyzed using ordinal logistic regression models of likelihood ratio tests, followed by a post-hoc Wald test

[3] = TEM characterization of PA nanofibers for diameter and length (Example 3); assay type: physicochemical; settings: 30 measurements from three images
Description: Samples at 1 mM in PBS were prepared for TEM by plating on copper supports covered with thin carbon foil 400-mesh that were treated with glow discharge. […] Due to the overlapping fibers, automated tools including FiberApp could not be used to analyze the nanofibers. Instead, the TEM images were analyzed manually for nanofiber diameter and length using ImageJ software. Cryogenic TEM of samples was also performed using a JEOL 1230 at 100 kV accelerating voltage and Gatan 831 CCD camera. […] Samples were prepared at 1 mM in PBS blotted once for 3 seconds before plunging into liquid ethane using a Vitrobot Mark III (FEI) vitrification robot.

Diameter (nm) Average [3] [nm]	Diameter (nm) Median [3] [nm]	Length (nm) Average [3] [nm]	Length (nm) Median [3] [nm]	Diameter (nm) Average ([3]; listed as ApoA1) [nm]	Length (nm) Median ([3]; listed as ApoA1) [nm]	Compound	median nanofiber length [1] [nm]	critical aggregation concentration (CAC) [2] [µM]	atherosclerosis progression in comparison to the PBS control (LDLR KO mice)
						10% MMP-Ac2-26 PA: co-assembly of 10 mol % MMP-Ac2-26 PA, 50 mol % E2 filler PA, and 40% ApoA1 PA (VVAAEEGGGPQGIWGQGKAMVSEFLKQAWFIENEEQEYVQTVK)	159	~32	
9.6	9.5	626.9	615.9	9.6±1.7	616	CCCCCCCCCCCCCCCC(=O)N[C@H](C(=O)N[C@H](C(=O)N[C@@H](C)C(=O)N[C@@H](C)C(=O)N[C@@H](CCC(=O)O)C(=O)N[C@@H](CCC(=O)O)C(=O)NCC(=O)N[C@@H](CC(=O)O)C(=O)N[C@@H](Cc1c[nH]c2ccccc12)C(=O)N[C@@H](Cc1ccccc1)C(=O)N[C@@H](CCCCN)C(=O)N[C@@H](C)C(=O)N[C@@H](Cc1ccccc1)C(=O)N[C@@H](Cc1ccc(O)cc1)C(=O)N[C@@H](CC(=O)O)C(=O)N[C@@H](CCCCN)C(=O)N[C@H](C(=O)N[C@@H](C)C(=O)N[C@@H](CCC(=O)O)C(=O)N[C@@H](CCCCN)C(=O)N[C@@H](Cc1ccccc1)C(=O)N[C@@H](CCCCN)C(=O)N[C@@H](CCC(=O)O)C(=O)N[C@@H](C)C(=O)N[C@@H](Cc1ccccc1)C(N)=O)C(C)C)C(C)C)C(C)C [ApoA1 PA] (Palmitoyl-VVAAEEGDWFKAFYDKVAEKFKEAF-NH2)			significantly decreased
